Source: US20140088073A1, “METHODS FOR DETERMINING WHETHER A PATIENT SHOULD BE ADMINISTERED A DRUG THAT INHIBITS CHOLESTEROL ABSORPTION” (Boston Heart Diagnostics Corporation, priority 2012, published 2014)

How the values were obtained:
[1] = tested on: hypercholesterolemic subjects; assay: EASE study post hoc analysis: plasma lipids, apolipoproteins and hs-CRP, ezetimibe add-on to ongoing statin therapy; type: in vivo, human; details: for Triglyceride / Apo A1 / Apo B / HDL-C / Non-HDL-C / Total C / Total C/HDL-C ratio / LDL-C / hs-CRP: baseline during ongoing statin therapy, by statin type; for Apo A1 / Apo B / HDL-C / Non-HDL-C / Total C / Total C/HDL-C ratio / LDL-C: mean ± SD; for LDL-C: Friedewald formula; for hs-CRP: median ± robust SD; for reductions from baseline in LDL-C / mean percent LDL-C reduction / percent LDL-C reduction from baseline: 6 weeks; for reductions from baseline in LDL-C: unadjusted data; for mean percent LDL-C reduction / percent change from baseline in LDL-C / percent change from baseline in non-HDL-C / percent change from baseline in total C/HDL-C: ezetimibe add-on
Method: (§1) Briefly, hypercholesterolemic subjects (n=874) on statins received ezetimibe 10 mg/day. Plasma lipids, lathosterol, and β-sitosterol were measured at baseline and on treatment.
(§2) This study included subjects from the ezetimibe add-on to statin arm of the EASE study (http://clinicaltrials.gov identifier NCT00092586; Study Protocol 040). Details of the study design and outcomes have been published previously. (See Pearson T A, Denke M A, McBride P E, Battisti W P, Brady W E, Palmisano J. A community-based, randomized trial of ezetimibe added to statin therapy to attain NCEP ATP III goals for LDL cholesterol in hypercholesterolemic patients: the ezetimibe add-on to statin for effectiveness (EASE) trial. Mayo Clin Proc 2005; 80:587-95; Pearson T A, Denke M A, McBride P E, et al. Effectiveness of ezetimibe added to ongoing statin therapy in modifying lipid profiles and low-density lipoprotein cholesterol goal attainment in patients of different races and ethnicities: a substudy of the Ezetimibe add-on to statin for effectiveness trial. Mayo Clin Proc 2006; 81:1177-85.)
(§3) Briefly, the EASE study was a multicenter, randomized, double-blind, placebo-controlled, 6-week parallel-group study. Participants with hypercholesterolemia were recruited from community based practices across the United States. Inclusion criteria were: 1) age ≧18 years, 2) on a stable, approved dose of any statin, 3) following a cholesterol-lowering diet for ≧6 weeks before study entry, and 4) LDL-C levels above risk-based NCEP ATP III targets. Subjects receiving lipid-altering agents other than statins during the 6 weeks before screening were excluded. Patients were randomized to receive ezetimibe 10 mg/day or placebo plus their current statin therapy and dose for 6 weeks. Statin type and dose were maintained throughout the study. The research protocol was approved by the investigational review boards at each site, and all participants provided written informed consent prior to study start.
(§4) For this current post hoc analysis, we assessed subjects who were randomized into the ezetimibe 10 mg plus statin arm of the EASE study (n=1940). Of the 1124 subjects with samples available for measurement, only those who had complete sterol and lipid data at baseline and at the end of the 6-week study were included in this analysis (n=874). The mean age and other baseline characteristics of those included and excluded from this analysis were similar. Comparison of subjects was based on statin type or potency (low, medium, high) subgroups. The low potency statin group (predicted LDL-C reduction of ˜20-30%) included subjects receiving simvastatin ≦10 mg/day, lovastatin ≦20 mg/day, pravastatin ≦20 mg/day, and fluvastatin ≦40 mg/day. The medium potency statin group (predicted LDL-C reduction of ˜31-45%) included subjects receiving simvastatin >10 to ≦40 mg/day, atorvastatin ≦20 mg/day, lovastatin >20 to 80 mg/day, pravastatin >20 to 80 mg/day, and fluvastatin >40 to 80 mg/day.
(§5) Plasma total cholesterol (total C), high-density lipoprotein cholesterol (HDL-C), and triglycerides (TG) were analyzed using standardized methods at the central laboratory of the trial (PPD Global Central Labs, Highland Heights, Kentucky, USA). LDL-C was calculated using the Friedewald formula. (See Friedewald W T, Levy R I, Fredrickson D S. Estimation of the concentration of low-density lipoprotein cholesterol in plasma, without use of the preparative ultracentrifuge. Clin Chem 1972; 18:499-502.) Non-HDL-C was calculated by subtracting HDL-C from total C. Apolipoprotein (Apo) A-I, Apo B, and high-sensitivity C-reactive protein (hs-CRP) were measured by automated immunoassays at the central laboratory. Within and between coefficients for all assays were <10%. Plasma lathosterol and β-sitosterol were quantified by gas chromatography mass spectrometry after lipid extraction as previously described in Sudhop T, Lutjohann D, Kodal A, et al. Inhibition of intestinal cholesterol absorption by ezetimibe in humans. […]

[2] = tested on: hypercholesterolemic subjects; assay: EASE study post hoc analysis: plasma lathosterol and β-sitosterol by gas chromatography mass spectrometry; type: in vivo, human; details: for B-sitosterol / B-sitosterol/Lathosterol / B-sitosterol/Total C / Lathosterol / Lathosterol/Total C: baseline during ongoing statin therapy, by statin type, mean ± SD
Method: as §1, §2, §3, §4, §5

[3] = tested on: patients with coronary heart disease; details: comparing sterol/cholesterol ratios; previous studies; cited from earlier work
[4] = literature; cited from earlier work
[5] = subjects with baseline sitosterol/lathosterol above the median
[6] = subjects with baseline sitosterol/lathosterol ≦ the median
[7] = overall study population, ezetimibe add-on to statin, 6 weeks

In the case of `CC(C)c1c(C(=O)Nc2ccccc2)c(-c2ccccc2)c(-c2ccc(F)cc2)n1CC[C@@H](O)C[C@@H](O)CC(=O)O` [Atorvastatin, atorvastatin], the Triglyceride [1] is reported as 149.0 ± 85.6 mg/dL, the “Apo A1” value [1] is reported as 156.3 ± 26.1 mg/dL and the “Apo B” value [1] is reported as 129.2 ± 25.4 mg/dL. For the same compound, the HDL-C [1] was 47.8 ± 10.7 mg/dL, the Non-HDL-C [1] was 162.0 ± 33.6 mg/dL and the “Total C” value [1] was 209.7 ± 35.4 mg/dL. The “Total C/HDL-C ratio” value [1] was 4.55 ± 1.05, the LDL-C [1] was 130.0 ± 30.9 mg/dL and the hs-CRP [1] was 2.40 ± 3.53 mg/L. The B-sitosterol [2] was 5.40 ± 2.93 µmol/L, the B-sitosterol/Lathosterol [2] was 4.22 ± 4.39 and the “B-sitosterol/Total C” value [2] was 1.01 ± 0.57 μmol/mmol. For the same compound, the Lathosterol [2] was 2.20 ± 1.70 µmol/L, the “Lathosterol/Total C” value [2] was 0.39 ± 0.26 μmol/mmol and the “increase of plant sterols” value [3] was 82%. The “reduction of precursor sterols” value [3] was −50%.

In the case of `CC[C@H](C)C(=O)O[C@H]1C[C@H](O)C=C2C=C[C@H](C)[C@H](CC[C@@H](O)C[C@@H](O)CC(=O)O)[C@H]21` [Pravastatin, pravastatin], the Triglyceride [1] is reported as 155.0 ± 80.0 mg/dL, the “Apo A1” value [1] is reported as 160.5 ± 28.2 mg/dL and the “Apo B” value [1] is reported as 131.3 ± 26.0 mg/dL. The HDL-C [1] was 48.6 ± 12.0 mg/dL, the Non-HDL-C [1] was 166.9 ± 34.5 mg/dL and the “Total C” value [1] was 215.5 ± 34.9 mg/dL. The “Total C/HDL-C ratio” value [1] was 4.65 ± 1.25, the LDL-C [1] was 133.1 ± 28.3 mg/dL and the hs-CRP [1] was 2.70 ± 4.09 mg/L. The B-sitosterol [2] was 4.72 ± 2.51 µmol/L, the B-sitosterol/Lathosterol [2] was 2.11 ± 2.10 and the “B-sitosterol/Total C” value [2] was 0.86 ± 0.48 μmol/mmol. The Lathosterol [2] was 3.08 ± 1.69 µmol/L and the “Lathosterol/Total C” value [2] was 0.55 ± 0.26 μmol/mmol.

For `CCC(C)(C)C(=O)O[C@H]1C[C@@H](C)C=C2C=C[C@H](C)[C@H](CC[C@@H]3C[C@@H](O)CC(=O)O3)[C@H]21` [Simvastatin, simvastatin], the Triglyceride [1] was 149.0 ± 88.4 mg/dL, the “Apo A1” value [1] was 157.7 ± 26.3 mg/dL and the “Apo B” value [1] was 125.8 ± 23.2 mg/dL. For the same compound, the HDL-C [1] was 48.2 ± 11.8 mg/dL, the Non-HDL-C [1] was 157.4 ± 30.2 mg/dL and the “Total C” value [1] was 205.5 ± 31.4 mg/dL. The “Total C/HDL-C ratio” value [1] was 4.46 ± 1.10, the LDL-C [1] was 124.3 ± 26.1 mg/dL and the hs-CRP [1] was 2.50 ± 3.81 mg/L. For the same compound, the B-sitosterol [2] was 4.33 ± 2.17 µmol/L, the “B-sitosterol/Total C” value [2] was 0.82 ± 0.40 μmol/mmol and the Lathosterol [2] was 2.47 ± 1.68 µmol/L. The “Lathosterol/Total C” value [2] was 0.46 ± 0.28 μmol/mmol.

With `O=C1[C@H](CC[C@H](O)c2ccc(F)cc2)[C@@H](c2ccc(O)cc2)N1c1ccc(F)cc1` [ezetimibe] the “LDL-C lowered by” value ([1]; addition of ezetimibe to any statin) was 23-26%, the “reductions from baseline in LDL-C” value ([1]; ezetimibe 10 mg/day added to ongoing high potency statin) was −29.1% and the “reductions from baseline in LDL-C” value ([1]; ezetimibe 10 mg/day added to ongoing low potency statin) was −22.7%. The “reductions from baseline in LDL-C” value ([1]; ezetimibe 10 mg/day added to ongoing medium potency statin) was −25.0%, the “mean percent LDL-C reduction” value ([1]; high potency statin group) was 29.1% and the “mean percent LDL-C reduction” value ([1]; low potency statin group) was 22.7%. For the same compound, the “mean percent LDL-C reduction” value ([1]; medium potency statin group) was 25.0%, the “percent change from baseline in LDL-C” value [1, 5] was −26.7% and the “percent change from baseline in non-HDL-C” value [1, 5] was −24.2%. The “percent change from baseline in total C/HDL-C” value [1, 5] was −19.0%, the “percent change from baseline in LDL-C” value [1, 6] was −24.1% and the “percent change from baseline in non-HDL-C” value [1, 6] was −21.6%. For the same compound, the “percent change from baseline in total C/HDL-C” value [1, 6] was −17.0%, the “percent LDL-C reduction from baseline” value ([1]; ezetimibe combination with ongoing atorvastatin) was 26.4% and the “percent LDL-C reduction from baseline” value ([1]; ezetimibe combination with ongoing lovastatin or fluvastatin) was 24.1%. For the same compound, the “percent LDL-C reduction from baseline” value ([1]; ezetimibe combination with ongoing pravastatin) was 23.1%, the “percent LDL-C reduction from baseline” value ([1]; ezetimibe combination with ongoing simvastatin) was 26.4% and the “mean lathosterol levels increased by” value [2, 7] was 52%. The “mean lathosterol/cholesterol ratio increased by” value [2, 7] was 83.8%, the “mean β-sitosterol levels decreased by” value [2, 7] was 47.4% and the “mean β-sitosterol/cholesterol ratio decreased by” value [2, 7] was 36.3%. The “overall percent change in the mean β-sitosterol/lathosterol ratio” value [2, 7] was −52.4% and the “reduces LDL-C levels by” value [4] was 15-20%.
